Where “and” joins values, the source holds several entries; their conditions need not be identical. Equal entries are not always repeated. Where two headings read alike, the source gives them in different places. One block for each compound: values may come before it.
Assays:
[1] = Plasma clearance in healthy volunteers (single injection, two-compartment model); assay type: in vivo, human; details: normal volunteers (n=5), individual values and mean
Description: (§1) Inclusion criteria required the absence of any history of kidney and bladder diseases and a normal review of systems. Pregnancy was excluded in females by means of a urine pregnancy test.

[2] = Comparison of renal tracer clearances in human subjects relative to PAH (FIG. 4)
[3] = In vitro stability in physiological phosphate buffer pH 7.4 (HPLC); details: phosphate buffer pH 7.4, 24 h, listed as Na2[^99mTc(CO)3(NTA)]
erythrocytes = test: Erythrocyte uptake, rat blood; assay type: in vitro ADME; details: rats
Procedure: (§2) Arterial blood samples were placed in capillary tubes and centrifuged to determine the hematocrit. Samples of the whole blood and packed cells (about 0.3 mL each) were pipetted into counting tubes, weighed, and counted. The percent uptake in the erythrocytes was calculated from the whole blood (counts/g) and packed cells (counts/g). Percent erythrocyte uptake=[(counts/g in erythrocytes×hematocrit)/counts/g in whole blood]. No correction was made for plasma trapped in the red blood cells sample. PPB and erythrocyte uptake were calculated in duplicate and the mean values reported.

plasma protein [4] = test: Plasma protein binding in healthy volunteers; assay type: in vitro ADME, human; details: normal volunteers, individual values and mean
red blood cells [5] = test: Red cell uptake in healthy volunteers; assay type: in vitro ADME, human; details: normal volunteers, individual values and mean
[6] = Cysteine and histidine challenge at 37 C (HPLC); details: 0.1 M cysteine and histidine, 4 h, listed as Na2[^99mTc(CO)3(NTA)]
[7] = Renal (plasma) clearance at steady-state infusion in rats; assay type: in vivo; details: steady-state co-infusion, average of three 10-min periods
Procedure: Two male rats were anesthetized as described above and placed on a heated surgical table. Following tracheostomy, the left jugular vein was cannulated with two pieces of PE-50 tubing (one for infusion of radiopharmaceuticals and one to infuse normal saline (5.8 mL/h) to maintain hydration and additional anesthetic (5 mg/h) as necessary). The right carotid artery was cannulated for blood sampling and the bladder was catheterized by use of PE-50 tubing. The core temperature of each animal was continually monitored throughout the study using a rectal temperature probe. […] (3.7 MBq/mL [100 μCi/mL]) and ^131I-OIH (1.85 MBq/mL [50 μCi/mL]), were co-infused at a flow rate of 1.7 ml/h for 60 mins to establish steady-state blood levels. […] The blood samples were centrifuged for 15 mins and plasma samples were obtained. Plasma clearance (CI) was determined by utilizing the equation: CI (mL/min)=UV/P, where U is the urine radioactivity concentration, V is the urine volume excreted per minute and P is the plasma radioactivity concentration.

[8] = Safety in healthy volunteers (vital signs, CBC, chemistry panel, urinalysis); assay type: in vivo, human; details: about 74 MBq, pre- and 24 hr post-injection
Description: as §1, with “Five healthy volunteers (3 male, 2 females; mean age±SD, 39.4±12.7 yrs; range 20-55 yrs) participated in this study. Inclusion” for “Inclusion”

[9] = cited from earlier work
[10] = background statement; cited from earlier work
[11] = humans, cited from earlier work
plasma protein [12] = details: rats, cited from earlier work
[13] = normal volunteers; cited from earlier work
[14] = cited from earlier work; remark: listed apart in the source
plasma protein [15] = test: Plasma protein binding by ultrafiltration, rat plasma; assay type: in vitro ADME; details: rats
Procedure: as §2

[16] = normal volunteers
[17] = Renal extraction fraction in rats (arterial vs renal venous plasma); assay type: in vivo
[18] = Biodistribution in normal rats, Group A (Example 7, Table 3); assay type: in vivo, Sprague-Dawley rats; details: for Percent injected dose in bowel: duodenum and colon samples; for Percent injected dose in blood: normal rats Group A, n=5
Procedure: (§3) Rats in both groups were anesthetized with ketamine-xylazine (2 mg/kg of body weight) injected intramuscularly, with additional supplemental anesthetic as needed. In the first group of ten normal rats (Group A), the bladder was catheterized by use of heat-flared PE-50 tubing. In the second group of six rats (Group B), the abdomen was open by a midline incision and both renal pedicles were ligated to produce a model of renal failure; thus no urine was collected.
(§4) One additional aliquot (0.2 mL) for each time point was diluted to 100 mL, and three 1-mL portions of the resulting solution were used as standards.
In Group A, 5 animals were sacrificed at 10 min, and 5 animals were sacrificed at 60 mins after injection. A blood sample was obtained, and the kidneys, heart, lungs, spleen, whole stomach and sections of the duodenum and ascending colon were removed and placed in counting vials. The whole liver was weighed, and random sections were obtained for counting. Samples of blood and urine were also placed in counting vials and weighed. […] The percentage of the dose in each tissue or organ was calculated by dividing the counts in each tissue or organ by the total injected counts. The percentage injected dose reported for the bowel was based on the combined counts of the duodenum and colon samples.

[19] = Biodistribution in rats with renal pedicle ligation (renal failure model), Group B; assay type: in vivo, Sprague-Dawley rats; details: 60 min
Procedure: as §3, §4
The 6 Group B rats were sacrificed 60 mins after injection. Selected organs, blood, and all of the small and large intestines were collected and counted as described above. The percentage injected dose reported for the bowel was based on the combined counts in the small and large intestines.

red blood cells [20] = details: human blood, equilibrium conditions; cited from earlier work
[21] = Biodistribution in Sprague-Dawley rats, percentage of injected dose (Example 6, Table 1); assay type: in vivo; details: for Percentage of injected dose in bowel: combined stomach and intestine
Procedure: Five samples for the 10 mins study, and six samples for the 60 mins study were used; the one sample for each time point was diluted to 100 ml, and three 1-ml portions of the resulting solution were used as standards. Each rat was anesthetized with ketamine-xylazine (2 mg/kg of body weight) injected intramuscularly, with additional supplemental anesthetic as needed. The bladder was catheterized by use of heat-flared PE-50 tubing (Becton, Dickinson and Co.) for urine collection.
A blood sample was obtained, and the heart, lungs, spleen, liver, intestines, stomach, and kidneys were removed. The whole liver was weighed, and random sections were obtained for counting. Blood, urine, whole organs, and tissue samples were placed in tubes, and each sample was weighed. […] The percentage of the dose in each tissue or organ was calculated by dividing the counts in each tissue or organ by the total injected counts, using reference counts from an accurately diluted sample of the original injection. The value given for the bowel represented combined stomach and intestine activities.

[22] = eight human volunteers, single ingested dose of 10 mg; cited from earlier work
[23] = cited from earlier work; remark: listed apart in the source

Plasma clearance, Cl [1]: 480 mL/min
Plasma clearance, Cl ([1]; listed as 99mTc-NTA, mean): 479.90 mL/min
Clearance relative to PAH (PAH assigned 100%) [2]: about 90%
Stability at physiological pH [3]: stable for 24 h
Erythrocyte (red cell) uptake (erythrocytes; listed as Na2[^99mTc(CO)3(NTA)]): 7±2% and 7%
PPB (plasma protein binding) (plasma protein [4]): 45%
PPB (plasma protein binding) (plasma protein [4]; listed as 99mTc-NTA): 39% and 40% and 50% and 42% and 53%
RBC (red cell uptake) (red blood cells [5]): 12%
RBC (red cell uptake) (red blood cells [5]; listed as 99mTc-NTA): 6% and 15% and 20% and 16% and 4%
RBC (red cell uptake) (red blood cells [5]; listed as 99mTc-NTA, mean): 12%
Stability to cysteine and histidine challenge [6]: no degradation
Plasma clearance [7]: 3.08 mL/min/100 g
Compound: technetium-99m tricarbonyl-nitrilotriacetic acid [^99mTc(CO)3(NTA)]
Plasma clearance, Cl ([1]; listed as 99mTc-NTA): 477.1 mL/min and 607.9 mL/min and 388.5 mL/min and 434.2 mL/min and 491.8 mL/min
Toxicity (blood pressure, heart rate, temperature, CBC, chemistry panel, urine analysis) [8]: no evidence of any toxicity
pKa of the pendant carboxylic acid [9]: approximately 3

Compound: O=C([O-])CN(CCN(CC(=O)[O-])CC(=O)[O-])CCN(CC(=O)[O-])CC(=O)[O-].[99Tc+4] [^99mTc-DTPA]
Extraction fraction (EF) [10]: 20%

Compound: ^99mTc-DD-ethylene dicysteine
Clearance as percent of that of PAH ([11]; literature): 60-65%

Compound: O=C([O-])CN=C([O-])CN=C([O-])CN=C([O-])C[S-].[O-2].[Tc+4] [^99mTc-MAG3, technetium-99m mercaptoacetyltriglycine]
Protein binding (plasma protein [12]; before infusion): 78%
Protein binding (plasma protein [12]; following PAH infusion): 44%
Protein binding (plasma protein [12]; following ammonium chloride infusion): 63%
Protein binding (plasma protein [12]; following mannitol infusion): 42%
Protein binding (plasma protein [12]; following sodium bicarbonate infusion): 65%
Clearance as multiple of the clearance of 99mTc-DTPA [11]: 2-2.5 times
Clearance relative to PAH (PAH assigned 100%) [2]: substantially less than that of PAH
Clearance relative to PAH (PAH assigned 100%) ([2]; listed as 99mTcMAG3): substantially less
Injected dose transported into the small intestine via the hepatobiliary system [13]: 0.5-1.0%
Hepatobiliary clearance ([14]; fasting rats): 11.7%
Hepatobiliary clearance ([14]; rats with free access to food): 6.6%
Extraction fraction (EF) [10]: 50-60%

Plasma protein binding (plasma protein [15]): 44±10%
Clearance relative to PAH (PAH assigned 100%) [2]: about 90%
Erythrocyte (red cell) uptake (erythrocytes): 35±1% and 35%
PPB (plasma protein binding) (plasma protein [4]): 77% and 74% and 79%
Urine 30 min (percent dose excreted) ([16]; 30 minutes): 80% and 74% and 78% and 55% and 64%
Urine (percent dose in urine) ([16]; collection time not given (voids at 30, 90, 180 min)): 98% and 93% and 96% and 83% and 81%
Extraction fraction [17]: 67.9±6.1% and 67.9%
Percent injected dose in kidney ([18]; Group A, 10 min): 5.6 ± 0.6%
Percent injected dose in liver ([18]; Group A, 10 min): 4.0 ± 0.7%
Percent injected dose in urine ([18]; Group A, 10 min): 53.2 ± 7.2%
Percent injected dose in bowel ([18]; Group A, 10 min): 2.2 ± 0.4%
Mean total injected activity present in heart, lungs, spleen, blood and liver ([18]; Group A, 60 min): 1.1%
Percent injected dose in kidney ([18]; Group A, 60 min): 0.5 ± 0.0%
Percent injected dose in liver ([18]; Group A, 60 min): 0.6 ± 0.3%
Percent injected dose in urine ([18]; Group A, 60 min): 91.4 ± 3.7%
Percent injected dose in bowel ([18]; Group A, 60 min): 1.0 ± 0.5%
Percent injected dose in blood ([18]; 10 min): 5.6 ± 1.0%
Percent injected dose in blood ([18]; 60 min): 0.5 ± 0.0%
Plasma clearance [7]: 2.96 mL/min/100 g
Percent injected dose in kidney ([19]; Group B): 0.8 ± 0.2%
Percent injected dose in liver ([19]; Group B): 9.7 ± 1.7%
Percent injected dose in bowel ([19]; Group B, small and large intestines): 14.6% and 14.6 ± 2.8%
Percent injected dose in blood ([19]; renal pedicle ligation Group B, n=6): 15.1% and 15.1 ± 0.9%
Percentage of injected dose in heart ([21]; 10 min): 0.2 ± 0.1%
Percentage of injected dose in kidney ([21]; 10 min): 5.6 ± 0.6%
Percentage of injected dose in liver ([21]; 10 min): 4.0 ± 0.7%
Percentage of injected dose in lung ([21]; 10 min): 0.5 ± 0.2%
Percentage of injected dose in urine ([21]; 10 min): 53.2 ± 7.2%
Percentage of injected dose in bowel ([21]; 10 min): 2.5 ± 0.5%
Percentage of injected dose in blood ([21]; 10 min post-injection, n=5): 5.6 ± 1.0%
Percentage of injected dose in heart ([21]; 60 min): 0.0 ± 0.0%
Percentage of injected dose in kidney ([21]; 60 min): 0.5 ± 0.0%
Percentage of injected dose in liver ([21]; 60 min): 0.7 ± 0.2%
Percentage of injected dose in lung ([21]; 60 min): 0.1 ± 0.1%
Percentage of injected dose in urine ([21]; 60 min): 91.4 ± 3.7%
Percentage of injected dose in bowel ([21]; 60 min): 1.7 ± 0.7%
Percentage of injected dose in blood ([21]; 60 min post-injection, n=6): 0.5 ± 0.0%
Compound: O=C(O)CNC(=O)c1ccccc1[131I] [^131I-OIH, ^131I-ortho-iodohippurate]
Plasma clearance, Cl [1]: 482 mL/min and 423.4 mL/min and 433.4 mL/min and 481.94 mL/min and 497.49 mL/min and 442 mL/min and 613.4 mL/min
RBC (red cell uptake) (red blood cells [5]): 20% and 15% and 21% and 25% and 24% and 14%
Fraction bound to or inside red blood cells (red blood cells [20]): 15-20%

Compound: O=C(O)CN(CC(=O)O)CC(=O)O [NTA, nitrilotriacetic acid]
Adverse effects (physical examination, blood chemistry, urinalysis) [22]: no evidence of adverse effects
Acceptable daily intake in drinking water (Health Canada) ([23]; based on two-year rat studies, nephrotoxic no-observed-adverse-effect level): 10 μg/kg bw per day
Dose inducing urinary tract tumors ([23]; rats and mice, two years): about 840 mg/kg bw per day
